Reference: article PMC6070996 (Marine Drugs, 2018)
pIC50: −log10 of the molar value.

Assays:
[1] = test system: human hepatoma cell line Huh7; parameters: method as in PMID 27428998; details: cited from earlier work
[2] = test system: zebrafish eleuthero-embryos; parameters: method as in PMID 24561424; details: genes of DNA damage recognition and repair, circadian rhythm; cited from earlier work
human kallikrein = test system: human kallikrein; parameters: method as in PMID 20405925; details: cited from earlier work
Thrombin [3] = target: T1, Thrombin (Bos taurus, UniProt P00735); test: thrombin inhibition assay; assay type: biochemical; parameters: key: - not active; */** small/medium activity; */** small/medium activity; details: highest concentration 45.4 μg/mL
T1 construct: purchased Sigma-Aldrich T4648

[4] = target: T2, elastase from porcine pancreas (Sus scrofa, UniProt P00772); test: elastase inhibition assay; assay type: biochemical; parameters: key: - not active; */** small/medium activity; */** small/medium activity; details: highest concentration 45.4 μg/mL
T2 construct: purchased Sigma-Aldrich E0258; host or cells: porcine pancreas

Chymotrypsin = details: cited from earlier work
plasmin = details: cited from earlier work
small crustaceans = test system: small crustaceans; parameters: method as in doi:10.2216/i0031-8884-35-6S-111.1, PMID 20405925, PMID 12662108; details: cited from earlier work
trypsin = details: cited from earlier work
[5] = target: T3, protein phosphatase 1 (PP1) (Oryctolagus cuniculus, UniProt P62139); test: protein phosphatase 1 inhibition assay; assay type: biochemical; parameters: key: - not active; */** small/medium activity; */** small/medium activity; details: highest concentration 45.4 μg/mL
T3 construct: purchased England Biolabs, Hitchin, UK (New England Biolabs) 754S

factor XIa = test system: factor XIa; parameters: method as in PMID 20405925; details: cited from earlier work
isolated rat hepatocytes = test system: isolated rat hepatocytes; parameters: method as in doi:10.2216/i0031-8884-35-6S-111.1; details: cited from earlier work
Daphnia magna = details: compared with microcystin-LR; cited from earlier work
mice = details: cited from earlier work
PP1 = details: cited from earlier work
Elastase = target: Elastase; parameters: method as in doi:10.1021/np960649a; details: cited from earlier work
papain = test system: papain; parameters: method as in doi:10.1021/np960649a; details: cited from earlier work
Thrombin [6] = target: T1, Thrombin; parameters: method as in doi:10.1021/np960649a; details: cited from earlier work
[7] = test system: NCI H460 lung cancer cells; parameters: method as in PMID 18163584; details: cited from earlier work
[8] = test system: neuro-2A neuroblastoma cells; parameters: method as in PMID 18163584; details: cited from earlier work

T2 sequence (P00772 27-266): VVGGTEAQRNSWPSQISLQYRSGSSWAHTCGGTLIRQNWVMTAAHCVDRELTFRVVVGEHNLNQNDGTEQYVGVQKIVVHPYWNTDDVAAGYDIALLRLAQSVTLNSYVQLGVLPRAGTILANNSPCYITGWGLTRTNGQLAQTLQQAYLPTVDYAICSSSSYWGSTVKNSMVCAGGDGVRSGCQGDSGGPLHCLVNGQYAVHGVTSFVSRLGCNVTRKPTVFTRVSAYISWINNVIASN
T3 sequence (P62139 whole entry): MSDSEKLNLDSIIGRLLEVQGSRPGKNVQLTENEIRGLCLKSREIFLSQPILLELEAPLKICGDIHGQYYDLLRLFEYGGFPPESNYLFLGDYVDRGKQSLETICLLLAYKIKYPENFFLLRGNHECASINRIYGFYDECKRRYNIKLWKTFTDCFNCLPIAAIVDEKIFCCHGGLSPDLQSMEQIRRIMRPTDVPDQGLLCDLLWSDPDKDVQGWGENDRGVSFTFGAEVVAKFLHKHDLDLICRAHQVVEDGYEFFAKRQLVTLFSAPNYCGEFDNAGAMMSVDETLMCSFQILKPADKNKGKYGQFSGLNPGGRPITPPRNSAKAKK

**Q.** For `CCCCCC(=O)N[C@@H](CCC(=O)O)C(=O)N[C@@H]1C(=O)N[C@@H](CCCNC(=N)N)C(=O)N[C@H]2CC[C@@H](O)N(C2=O)[C@@H](Cc2ccccc2)C(=O)N(C)[C@@H](Cc2ccc(O)cc2)C(=O)N[C@@H](C(C)C)C(=O)O[C@@H]1C` [CP1020, cyanopeptolin 1020], which “anti-inflammatory effects in Huh7” value [1] is on record?
**A.** The value was “induction of anti-inflammatory effects”.

**Q.** What about the “transcriptional alterations of genes in zebrafish eleuthero-embryos” value [2] of the same compound?
**A.** The value was “led to transcriptional alterations of genes”.

**Q.** Which “activity against human kallikrein” value (human kallikrein) does the source give for `CCCCCC(=O)N[C@@H](CC(=O)O)C(=O)N[C@@H]1C(=O)N[C@@H](CCCNC(=N)N)C(=O)N[C@H]2CC[C@@H](O)N(C2=O)[C@@H](Cc2ccccc2)C(=O)N(C)[C@@H](CCc2ccc(O)cc2)C(=O)N[C@@H](C(C)C)C(=O)O[C@@H]1C` [CP 1020, [Thr+Arg+Ahp+Phe+MeHty+Val]Asp+HA] here?
**A.** Its value is “active”.

**Q.** What about the “Enzyme Inhibition Thrombin (activity class)” value (Thrombin [3]) of the same compound?
**A.** Its value is “-”.

**Q.** And the “Enzyme Inhibition Elastase (activity class)” value [4]?
**A.** Its value is “-”.

**Q.** And the “activity against chymotrypsin” value (Chymotrypsin)?
**A.** The value was “active”.

**Q.** And the “activity against plasmin” value (plasmin)?
**A.** Its value is “active”.

**Q.** And the “acute effects in small crustaceans” value (small crustaceans)?
**A.** Its value is “induced acute effects”.

**Q.** What about the “inhibition of trypsin” value (trypsin) of the same compound?
**A.** Its value is “Picomolar inhibition”.

**Q.** And the “Enzyme Inhibition Protein Phosphatase 1 (activity class)” value [5]?
**A.** The value was “-”.

**Q.** What about the “activity against factor XIa” value (factor XIa) of the same compound?
**A.** The value was “active”.

**Q.** For `CC[C@H](C)[C@@H]1NC(=O)[C@H](Cc2ccccc2)N(C)C(=O)[C@H]([C@@H](C)CC)N2C(=O)[C@H](CC[C@H]2O)NC(=O)[C@H](CCCN=C(N)N)NC(=O)[C@@H](NC(=O)[C@@H](COS(=O)(=O)O)OS(=O)(=O)O)[C@@H](C)OC1=O` [CP SS], which “toxicity to isolated rat hepatocytes” value (isolated rat hepatocytes) is on record?
**A.** The value was “not toxic”.

**Q.** What about the “inhibition of plasmin” value (plasmin) of the same compound?
**A.** The value was “inhibited plasmin”.

**Q.** What about the “acute effects in small crustaceans” value (small crustaceans) of the same compound?
**A.** Its value is “induced acute effects”.

**Q.** And the “toxicity against Daphnia magna” value (Daphnia magna)?
**A.** Its value is “even higher than for microcystin-LR”.

**Q.** With `CC[C@H](C)[C@H](NC(=O)[C@H](O)Cc1ccc(O)cc1)C(=O)N[C@@H](CCO)C(=O)N[C@@H]1C(=O)N[C@@H](CCO)C(=O)N[C@H]2CC[C@@H](O)N(C2=O)[C@@H](Cc2ccccc2)C(=O)N(C)[C@@H](Cc2ccc(O)cc2)C(=O)N[C@@H](C(C)C)C(=O)O[C@@H]1C` [Nostocyclin, [Thr+Hse+Ahp+Phe+MeTyr+Val]Hse+Ile+Hpla] as the compound, how does the “toxicity in mouse bioassay” value (mice) read?
**A.** Its value is “not toxic”.

**Q.** What about the “activity against protein phosphatases” value (PP1; protein phosphatases) of the same compound?
**A.** Its value is “weak activity”.

**Q.** And the pIC50 (PP1; read-out: Enzyme Inhibition PP1 IC50)?
**A.** Its pIC50 is 4.19.

**Q.** Which “Enzyme Inhibition Elastase IC50” value (Elastase) does the source give for `CCCC(=O)N[C@@H](CCC(N)=O)C(=O)N1CC(C)C2OC(=O)[C@H]([C@@H](C)CC)NC(=O)[C@H](Cc3ccc(O)cc3)N(C)C(=O)[C@H]([C@@H](C)CC)N3C(=O)C(CCC3O)NC(=O)[C@H](CC(C)C)NC(=O)[C@H]21` (stereo partly shown) [Nostopeptin A, [Hmp+Leu+Ahp+Ile+MeTyr+Ile]Gln+BA] here?
**A.** The value was 1.3 µg/mL.

**Q.** What about the “Enzyme Inhibition Chymotrypsin IC50” value (Chymotrypsin) of the same compound?
**A.** Its value is 1.4 µg/mL.

**Q.** What about the “activity against papain” value (papain) of the same compound?
**A.** Its value is “inactive”.

**Q.** And the “activity against thrombin” value (Thrombin [6])?
**A.** Its value is “inactive”.

**Q.** What about the “activity against plasmin” value (plasmin) of the same compound?
**A.** The value was “inactive”.

**Q.** And the “activity against trypsin” value (trypsin)?
**A.** Its value is “inactive”.

**Q.** For `CC[C@H](C)[C@@H]1NC(=O)[C@H](Cc2ccc(O)cc2)N(C)C(=O)[C@H]([C@@H](C)CC)N2C(=O)C(CCC2O)NC(=O)[C@H](CC(C)C)NC(=O)[C@@H]2C(OC1=O)C(C)CN2C(=O)[C@H](CCC(N)=O)NC(C)=O` (stereo partly shown) [Nostopeptin B, [Hmp+Leu+Ahp+Ile+MeTyr+Ile]Gln+Ac], which “Enzyme Inhibition Elastase IC50” value (Elastase) is on record?
**A.** Its value is 11.0 µg/mL.

**Q.** And the “Enzyme Inhibition Chymotrypsin IC50” value (Chymotrypsin)?
**A.** Its value is 1.6 µg/mL.

**Q.** And the “activity against papain” value (papain)?
**A.** The value was “inactive”.

**Q.** What about the “activity against thrombin” value (Thrombin [6]) of the same compound?
**A.** The value was “inactive”.

**Q.** And the “activity against plasmin” value (plasmin)?
**A.** Its value is “inactive”.

**Q.** And the “activity against trypsin” value (trypsin)?
**A.** The value was “inactive”.

**Q.** What does the source list for `CCCC(=O)N[C@@H](CCC(N)=O)C(=O)N[C@@H]1C(=O)N[C@@H](CCCNC(N)=O)C(=O)N[C@H]2CC[C@@H](O)N(C2=O)[C@@H]([C@@H](C)CC)C(=O)N(C)[C@@H](Cc2ccc(OC)c(Br)c2)C(=O)N[C@@H](C(C)C)C(=O)O[C@@H]1C` [Symplocamide A]?
**A.** pIC50 (Chymotrypsin; read-out: chymotrypsin IC50): 6.42; cytotoxic activity to NCI H460 lung cancer cells [7]: cytotoxic activity; cytotoxic activity to neuro-2A neuroblastoma cells [8]: cytotoxic activity; pIC50 (trypsin): 4.10
